Drawing on patent US10981932B2, “Macrocyclic indole derivatives” (Bayer Aktiengesellschaft, priority 2016, dated 2021), this text covers EC50 and IC50 for four compounds.

Structures can show the parent of a compound that is named as a salt. Where two headings read alike, the source gives them in different places.

Data set [1] deals with SUDHL5. The experiment in a line: Induction of caspase-3/7 activity (Caspase-Glo 3/7), SUDHL5. Type of data set: cell-based. As to conditions: caspase-3/7 induction, SUDHL5 cells, 3 h treatment; median. In short, it runs like this: (§1)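 DLBCL cells treated with compounds for 3 h at 37 °C, then caspase-3/7 activity read by Caspase-Glo 3/7 luminescence. Medium-only background subtracted; EC50 fitted with C0 fixed at 1 and top set to the reference compound's maximal induction.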

Data set [2] relates to SUDHL10. The experiment in a line: Induction of cytotoxicity (CellTiter-Glo, 5 h), SUDHL10. As to conditions: read-out: Cytotox SUDHL10 [M] (median); SUDHL10 cells, cytotoxicity induction, CellTiter-Glo, 5 h, median. Background: In ATP-based viability assays light output follows the ATP content of the culture.
Data set [3] deals with SUDHL10. The experiment in a line: Induction of caspase-3/7 activity (Caspase-Glo 3/7), SUDHL10. Type of data set: cell-based. The note with it: caspase-3/7 induction, SUDHL10 cells, 3 h treatment; median. In short, it runs like this: as §1
For another data set, the target named is MCL-1 (Homo sapiens, UniProt Q07820). The data set can be described thus: Protein-protein interaction assay MCL-1/Noxa BH3 peptide (MCL-1 assay), TR-FRET. Type of data set: binding. The note with it: MBP-MCL-1 / Noxa BH3-derived peptide, median. In short, it runs like this: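 TR-FRET, 665/622 nm emission ratio (excitation 330–350 nm), measured MCL-1/Noxa complex formation. 1 nM MBP-MCL-1, 50 mM Tris/HCl pH 7, 0.1% BGG, 2 mM DTT. Incubation 1 h at 22 °C, then overnight at 4 °C. IC50 by 4-parameter regression, normalized to DMSO (0%) and no-MCL-1 (100%) controls.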
Sequence of MCL-1 (Q07820 whole entry): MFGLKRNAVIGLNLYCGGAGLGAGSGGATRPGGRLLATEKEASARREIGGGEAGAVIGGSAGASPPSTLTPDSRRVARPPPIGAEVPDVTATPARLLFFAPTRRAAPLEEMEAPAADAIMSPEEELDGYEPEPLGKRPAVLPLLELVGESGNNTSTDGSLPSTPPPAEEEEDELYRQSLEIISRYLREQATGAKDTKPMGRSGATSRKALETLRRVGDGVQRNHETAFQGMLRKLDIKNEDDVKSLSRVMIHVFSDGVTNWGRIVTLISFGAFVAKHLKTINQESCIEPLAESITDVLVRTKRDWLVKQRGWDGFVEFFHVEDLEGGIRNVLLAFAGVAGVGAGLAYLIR
A general note: TR-FRET usually uses a lanthanide donor and a delayed reading to cut background.

A further data set deals with MV-4-11. The data set can be described thus: Anti-proliferative effect (CellTiter-Glo, 72 h), MV-4-11. In kind it is cell-based. The note with it: MV-4-11 cells, median, read-out: IC50 antiproliferation assay MV-4-11 [M] (median). The method, boiled down: (§2)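 A time zero plate, read with CellTiter-Glo shortly after seeding, served as baseline; compound-treated plates were incubated 72 h at 37 °C and then read identically by luminescence.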

The test system of a further data set is A2780. The experiment in a line: Anti-proliferative effect (CellTiter-Glo, 72 h), A2780. In kind it is cell-based. The note with it: A2780 cells, median, read-out: IC50 antiproliferation assay A2780 [M] (median). In short, it runs like this:
as §2

Data set [4] deals with SUDHL5. The experiment in a line: Induction of cytotoxicity (CellTiter-Glo, 5 h), SUDHL5. As to conditions: read-out: Cytotox SUDHL5 [M] (median); SUDHL5 cells, cytotoxicity induction, CellTiter-Glo, 5 h, median.
Data set [5] relates to SUDHL5. The data set can be described thus: Anti-proliferative effect (CellTiter-Glo, 72 h), SUDHL5. In kind it is cell-based. The note with it: SUDHL5 cells, antiproliferation, 72 h, median, read-out: Antiproli SUDHL5 [M] (median). In short, it runs like this:
as §2

With `Cc1c2c(nn1C)COCCCCn1c(C(=O)O)c(CCCOc3cccc4cc(F)ccc34)c3cccc-2c31` (single isomer, unassigned; enantiomer 2) [Example 302, (+)-7-{3-[(6-fluoronaphthalen-1-yl)oxy]propyl}-2,3-dimethyl-2,10,11,12,13,15-hexahydropyrazolo[4′,3′:9,10][1,6]oxazacycloundecino[8,7,6-hi]indole-8-carboxylic Acid (Enantiomer 2)], the half-maximal effective concentration (EC50) (as a rule, the concentration needed to bring the measured effect to its halfway point) is 0.674 µM in the data set with SUDHL5 [1] and 4.2 µM in the data set with SUDHL10 [3]. Further, the IC50 in the data set with SUDHL10 [2] was 3.49e-06 M; at MCL-1 it was 0.00126 µM; in the data set with MV-4-11, 4.78e-06 M; with A2780 (Homo sapiens, A2780, 72 h) it was 2.25e-05 M; with SUDHL5 [4] it was 1.05e-06 M; in the data set with SUDHL5 [5], 1.99e-06 M.
As to `Cn1nc(COCc2ccc(C#N)cc2)c2c1COCCCCn1c(C(=O)O)c(CCCOc3cccc4ccccc34)c3cccc-2c31` (single isomer, unassigned; enantiomer 2) [Example 348, 3-{[(4-cyanobenzyl)oxy]methyl}-1-methyl-7-[3-(naphthalen-1-yloxy)propyl]-1,10,11,12,13,15-hexahydropyrazolo[4′,3′:9,10][1,6]oxazacycloundecino[8,7,6-hi]indole-8-carboxylic acid-N-ethylethanamine Salt (Enantiomer 2)], the figures for the concentration for a half-maximal effect (EC50) in the data set with SUDHL5 [1] and with SUDHL10 [3] were 14.6 µM and 16.8 µM, respectively. In addition, the IC50 in the data set on SUDHL10 [2] was found to be 2.81e-05 M; against MCL-1, 0.0196 µM; in the data set on MV-4-11, 4.15e-06 M; with A2780, 1.46e-05 M; in the data set with SUDHL5 [4] it was 1.38e-05 M; in the data set on SUDHL5 [5], 5.12e-06 M.
In the case of `COc1ccc2c(CCCOc3cccc4ccccc34)c(C(=O)O)n3c2c1-c1c(nn(C)c1C)COCCCC3` (single isomer, unassigned; enantiomer 2) [Example 351, 4-methoxy-2,3-dimethyl-7-[3-(naphthalen-1-yloxy)propyl]-2,10,11,12,13,15-hexahydropyrazolo[4′,3′:9,10][1,6]oxazacycloundecino[8,7,6-hi]indole-8-carboxylic acid-N-ethylethanamine Salt (Enantiomer 2)], the EC50 with SUDHL5 [1] and in the data set on SUDHL10 [3] was more than 33 µM in each case. Further, the IC50 was more than 3.3e-05 M in the data set on SUDHL10 [2]; 2.03 µM on MCL-1; more than 3.3e-05 M in the data set on MV-4-11; more than 3.3e-05 M in the data set on A2780; more than 3.3e-05 M with SUDHL5 [4]; 2.07e-05 M with SUDHL5 [5].
Regarding `COc1ccc2c(CCCOc3cccc4ccccc34)c(C(=O)O)n3c2c1-c1c(C)nn(C)c1COCCCC3` (single isomer, unassigned; enantiomer 2) [Example 353, 4-methoxy-1,3-dimethyl-7-[3-(naphthalen-1-yloxy)propyl]-1,10,11,12,13,15-hexahydropyrazolo[4′,3′:9,10][1,6]oxazacycloundecino[8,7,6-hi]indole-8-carboxylic Acid Ammonium Salt (Enantiomer 2)], the EC50 in the data set with SUDHL5 [1] and in the data set with SUDHL10 [3] was more than 33 µM throughout. Besides, the IC50 in the data set with SUDHL10 [2] is more than 3.3e-05 M; against MCL-1, 1.28 µM; in the data set on MV-4-11 it was 3.11e-05 M; in the data set with A2780, 2.17e-05 M; with SUDHL5 [4], more than 3.3e-05 M; in the data set with SUDHL5 [5], 8.32e-06 M.
